Laboratory results: BindingDB's records for doi:10.1021/acs.jmedchem.3c00203 (University of Oxford, 2023)
pIC50, pKd: −log10 of the molar value.

Tests used:
[1] = target: T1, Isocitrate dehydrogenase [NADP] cytoplasmic (Homo sapiens, UniProt O75874); experiment: Binding affinity to human recombinant IDH1 expressed in Escherichia coli BL21(DE3) pLysS cells assessed as dissociation constant by non-denaturing mass spectroscopic analysis
Target sequence in this assay (O75874 whole entry): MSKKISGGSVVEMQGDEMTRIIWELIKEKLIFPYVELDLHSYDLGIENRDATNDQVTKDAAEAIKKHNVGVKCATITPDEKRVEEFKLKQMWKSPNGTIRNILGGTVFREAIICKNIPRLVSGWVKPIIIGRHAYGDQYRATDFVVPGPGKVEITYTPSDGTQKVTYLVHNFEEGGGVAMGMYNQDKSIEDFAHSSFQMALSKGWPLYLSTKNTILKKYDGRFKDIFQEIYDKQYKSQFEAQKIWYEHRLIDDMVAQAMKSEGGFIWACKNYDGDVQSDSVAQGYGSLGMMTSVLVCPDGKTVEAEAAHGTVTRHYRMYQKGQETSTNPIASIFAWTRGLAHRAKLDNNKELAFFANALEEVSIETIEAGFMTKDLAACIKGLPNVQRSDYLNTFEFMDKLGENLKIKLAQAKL

[2] = target: T1, Isocitrate dehydrogenase [NADP] cytoplasmic; experiment: Inhibition of recombinant IDH1 R132H mutant (unknown origin) expressed in Escherichia coli BL21(DE3) pLysS cells using 2OG as substrate assessed as 2OG conversion to 2HG incubated for 60 mins in presence of NADPH by spectrophotometric analysis
Target sequence in this assay (O75874 2-414 R132H limits assumed): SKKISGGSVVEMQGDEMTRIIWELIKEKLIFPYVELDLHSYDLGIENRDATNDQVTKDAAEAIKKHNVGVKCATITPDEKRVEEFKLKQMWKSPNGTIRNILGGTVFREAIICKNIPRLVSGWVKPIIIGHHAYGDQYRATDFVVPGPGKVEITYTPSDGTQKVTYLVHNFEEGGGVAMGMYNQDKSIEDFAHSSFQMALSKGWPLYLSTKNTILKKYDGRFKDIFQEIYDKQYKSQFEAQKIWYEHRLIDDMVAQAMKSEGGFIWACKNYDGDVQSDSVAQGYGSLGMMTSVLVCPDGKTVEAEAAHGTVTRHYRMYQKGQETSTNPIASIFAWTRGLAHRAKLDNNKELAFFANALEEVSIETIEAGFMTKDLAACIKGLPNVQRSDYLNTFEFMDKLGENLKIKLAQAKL

[3] = target: T1, Isocitrate dehydrogenase [NADP] cytoplasmic; experiment: Binding affinity to recombinant IDH1 R132H mutant (unknown origin) expressed in Escherichia coli BL21(DE3) pLysS cells assessed as dissociation constant by ITC assay
Target sequence in this assay (O75874 2-414 R132H limits assumed): as above

[4] = target: T1, Isocitrate dehydrogenase [NADP] cytoplasmic; experiment: Inhibition of recombinant wildtype IDH1 (unknown origin) expressed in Escherichia coli BL21(DE3) pLysS cells using DL-isocitrste as substrate assessed as DL-isocitrate conversion to 2OG incubated for 60 mins in presence of NADPH by spectrophotometric analysis
Target sequence in this assay (O75874 whole entry): as the sequence (O75874 whole entry) above

[5] = target: T1, Isocitrate dehydrogenase [NADP] cytoplasmic; experiment: Binding affinity to recombinant wildtype IDH1 (unknown origin) expressed in Escherichia coli BL21(DE3) pLysS cells assessed as dissociation constant by ITC assay
Target sequence in this assay (O75874 whole entry): as above

[6] = target: T1, Isocitrate dehydrogenase [NADP] cytoplasmic; experiment: Binding affinity to recombinant wildtype IDH1 (unknown origin) expressed in Escherichia coli BL21(DE3) pLysS cells assessed as dissociation constant by NMR analysis
Target sequence in this assay (O75874 whole entry): as above

[7] = target: T1, Isocitrate dehydrogenase [NADP] cytoplasmic; experiment: Binding affinity to human recombinant IDH1 R132H mutant expressed in Escherichia coli BL21(DE3) pLysS cells assessed as dissociation constant by non-denaturing mass spectroscopic analysis
Target sequence in this assay (O75874 2-414 R132H limits assumed): as the sequence (O75874 2-414 R132H limits assumed) above

[8] = target: T1, Isocitrate dehydrogenase [NADP] cytoplasmic; experiment: Binding affinity to recombinant IDH1 R132H mutant (unknown origin) expressed in Escherichia coli BL21(DE3) pLysS cells assessed as dissociation constant by NMR analysis
Target sequence in this assay (O75874 2-414 R132H limits assumed): as above

- pKd [1]: 3.85
- pIC50 [2]: 8.09
- pKd [3]: < 3.40
- pIC50 [4]: 6.47
- pKd [5]: < 3.40
- pKd [6]: 5.77
- pKd [7]: 3.85
- pKd [8]: 5.96
Structure (SMILES): CC(=O)N1CCN(Cc2ccc([C@H](C)Nc3nccc(N4C(=O)OC[C@@H]4C(C)C)n3)cc2)CC1 [US8957068, 556]
